Reference: patent US20130030012A1, “COMPOUNDS” (Glaxo Group Limited, priority 2011, published 2013)
Counter-ions that a name gives are not always drawn. Like-named read-outs stand apart in the source and are kept apart here.

Key:
[1] = target: T1, recombinant human Lp-PLA2 (Homo sapiens, UniProt Q13093); experiment: Recombinant human Lp-PLA2 assay (rhLp-PLA2, PED6 assay); format: biochemical; conditions: upper limit for pIC50 in this assay is 9.3
T1 sequence (Q13093 22-441): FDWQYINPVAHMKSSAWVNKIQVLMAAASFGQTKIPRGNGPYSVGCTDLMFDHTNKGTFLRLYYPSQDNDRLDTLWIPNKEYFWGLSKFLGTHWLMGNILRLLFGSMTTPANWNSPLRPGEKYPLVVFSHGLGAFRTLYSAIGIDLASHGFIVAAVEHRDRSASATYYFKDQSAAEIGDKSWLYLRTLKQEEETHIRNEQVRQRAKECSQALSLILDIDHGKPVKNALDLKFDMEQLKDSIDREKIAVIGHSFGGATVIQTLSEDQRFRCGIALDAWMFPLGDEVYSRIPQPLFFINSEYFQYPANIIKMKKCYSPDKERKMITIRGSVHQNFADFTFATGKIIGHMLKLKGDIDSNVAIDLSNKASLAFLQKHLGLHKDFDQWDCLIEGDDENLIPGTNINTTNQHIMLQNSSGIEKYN
From the text: (1) Recombinant Human Lp-PLA2 Assay (rhLp-PLA2) (Also Referred to as “PED6” Assay)
N-((6-(2,4-dinitrophenyl)amino)-hexanoyl)-2-(4,4-difluoro-5,7-dimethyl-4-bora-3a,4a-diaza-s-indacene-3-pentanoyl)-1-hexadecanoyl-sn-glycero-3-phosphoethanolamine, triethylammonium salt (PED6) is a commercially available fluorescently-labeled phospholipid, which is commercially available from Invitrogene and Molecular Probes. There is a quenching […] and a Bodipy fluorescein (FL) group in the sn2 position. Upon cleavage with Lp-PLA2, the Bodipy FL group is liberated and then may result in an increase in fluorescence. Inhibitors of Lp-PLA2 therefore prevent this cleavage and no fluorescent increase is observed.
The PED6 assay was run as an unquenched 10 μL assay. The source plate containing the compounds to be tested was prepared by making 1:3 (by volume) serial dilution of the compounds within DMSO on 384-well microplate. Then, 0.01 μL of the compounds on compound source plate were transferred into 384 well Greiner 784076 (black) plates using ECHO liquid dispenser. 5 μL of recombinant human Lp-PLA2 enzyme (4 nM (or 110 pM) rhLp-PLA2 in assay buffer of 50 mM HEPES, pH 7.4, 150 mM NaCl, 1 mM CHAPS) was added to each well of the plate. Plates were centrifuged for 10 sec at 500 rpm. After 30 minutes preincubation, 5 μL of substrate ([…] (or 5 μM) PED6 [from 5 mM DMSO stock] in assay buffer of 50 mM HEPES, pH 7.4, 150 mM NaCl, 1 mM CHAPS) was added to 384 well Greiner 784076 (black) plates. Plates were centrifuged for 10 sec at 500 rpm. The plate was covered to protect it from light and incubated for 20 min at room temperature. The plates were read for fluorescence intensity at ex: 480/em: 540 using ViewLux microplate imager for Envision spectrofluoroimeters pIC50 data, curve and QC analysis was conducted by using XL fit module in Excel.
The compounds described below were tested generally according to the PED6 assay described above.

Lp-PLA2 in human plasma = target: T2, Lp-PLA2 in human plasma (Homo sapiens, UniProt Q13093); experiment: Lp-PLA2 human plasma assay (Thio-PAF assay); format: biochemical; conditions: pooled human plasma; read-out: pIC50 values in the thio-PAF assay (converted)
T2 construct: from tissue; host or cells: pooled human plasma
T2 sequence (Q13093 22-441): T1 sequence (Q13093 22-441)
From the text: The human plasma assay utilizes a thioester analog of PAF (phosphatidylcholine), where hydrolysis yields to the formation of a phospholipid containing a free thiol group. The amount of thiol is quantitated continuously by reacting with CPM (7-diethylamino-3-(4′-maleimidylphenyl)-4-methylcoumarin), a maleimide which increases in fluoresence after Michael addition of thiols. This assay may detect the activity of Lp-PLA2 in human plasma, as determined by specific inhibition by Lp-PLA2 inhibitors.
The thio-PAF assay was run as a quenched 15 μL assay. Compounds source plate was prepared by making 1:3 (by volume) serial dilution of the compounds into pure DMSO on 384-well microplate. 0.01 μL of compounds on compound source plate were transferred to 384 well Greiner 784076 (black) low-volume plates by ECHO liquid dispenser. 8 μL pooled human plasma, which was previously aliquoted and frozen, was added. Plates were centrifuged for 10 sec at 500 rpm. After 30 minutes preincubation, 2 μL of substrate solution comprising 2.5 mM 2-thio-PAF [from ethanol stock], […] CPM [from a DMSO stock] and 3.2 mM NEM (N-ethylmaleimide) [made fresh daily in DMSO] in assay buffer of 50 mM HEPES, pH 7.4, 150 mM NaCl, 1 mM CHAPS was added to 384 well Greiner 784076 (black) low-volume plates by BRAVO liquid handling station. After 2 mins, reaction was quenched with 5 μL of 5% aqueous trifluoroacetic acid (TFA). Plates were covered to protect from light and incubated for 40 min at room temperature. Plates were read at ex: 380/em: 485 using—Envision microplate reader. pIC50 data, curve and QC analysis was conducted by using XLFit module in Excel.

[2] = read-out: pIC50 values in the PED6 assay (converted)
[3] = Table 1, read-out: rhLp-PLA2 (PED6 assay) (pIC50) (converted)

IC50 [1, 2]	IC50 (Lp-PLA2 in human plasma)	IC50 [1, 3]	SMILES
≤ 1 nM	≤ 100 nM		CN1CCCn2c1cc(OCCc1ccc(Oc3cccc(C(F)(F)F)c3)c(F)c1)nc2=O [Example 105, 8-(3-fluoro-4-(3-(trifluoromethyl)phenoxy)phenethoxy)-1-methyl-3,4-dihydro-1H-pyrimido[1,6-a]pyrimidin-6(2H)-one]
≤ 1 nM	≤ 100 nM	≤ 0.501 nM	O=c1nc(OCc2cc(F)c(Oc3ccc(F)c(C(F)(F)F)c3)c(F)c2)cc2n1CCCN2 [Example 93, 8-((3,5-difluoro-4-(4-fluoro-3-(trifluoromethyl)phenoxy)benzyl)oxy)-3,4-dihydro-1H-pyrimido[1,6-a]pyrimidin-6(2H)-one]
≤ 1 nM	≤ 100 nM		O=c1nc(OCc2cc(F)c(Oc3cccc(F)c3)c(F)c2)cc2n1CCCN2 [Example 115, 8-((3,5-difluoro-4-(3-fluorophenoxy)benzyl)oxy)-3,4-dihydro-1H-pyrimido[1,6-a]pyrimidin-6(2H)-one]
≤ 10 nM	≤ 100 nM		CN1CCCn2c1cc(OCc1ccc(Oc3ccc(F)c(C(F)(F)F)c3)c(F)c1)nc2=O [Example 13, 8-((3-fluoro-4-(4-fluoro-3-(trifluoromethyl)phenoxy)benzyl)oxy)-1-methyl-3,4-dihydro-1H-pyrimido[1,6-a]pyrimidin-6(2H)-one]
≤ 1 nM	≤ 100 nM	< 0.501 nM	O=c1nc(OCc2cc(F)c(Oc3ccc(C(F)(F)F)nc3)c(F)c2)cc2n1CCCN2 [Example 75, 8-((3,5-difluoro-4-((6-(trifluoromethyl)pyridin-3-yl)oxy)benzyl)oxy)-3,4-dihydro-1H-pyrimido[1,6-a]pyrimidin-6(2H)-one]
≤ 1 nM	≤ 100 nM		O=c1nc(OCc2cc(F)c(Oc3ccc(F)c(F)c3)c(F)c2)cc2n1CCCN2 [Example 91, 8-((4-(3,4-difluorophenoxy)-3,5-difluorobenzyl)oxy)-3,4-dihydro-1H-pyrimido[1,6-a]pyrimidin-6(2H)-one]
≤ 10 nM	≤ 1000 nM		CN1CCCn2c1cc(OCc1ccc(Oc3ccc(Cl)c(C(F)(F)F)c3)cc1)nc2=O [Example 6, 8-((4-(4-chloro-3-(trifluoromethyl)phenoxy)benzyl)oxy)-1-methyl-3,4-dihydro-1H-pyrimido[1,6-a]pyrimidin-6(2H)-one]
≤ 1 nM	≤ 100 nM	1 nM	N#Cc1cc(COc2cc3n(c(=O)n2)CCCN3)ccc1Oc1cccc(C(F)(F)F)c1 [Example 53, 5-(((6-oxo-2,3,4,6-tetrahydro-1H-pyrimido[1,6-a]pyrimidin-8-yl)oxy)methyl)-2-(3-(trifluoromethyl)phenoxy)benzonitrile]
≤ 1 nM	≤ 100 nM		O=c1nc(OCc2ccc(Oc3ccc(F)c(F)c3)cc2)cc2n1CCCN2 [Example 119, 8-((4-(3,4-difluorophenoxy)benzyl)oxy)-3,4-dihydro-1H-pyrimido[1,6-a]pyrimidin-6(2H)-one]
≤ 1 nM	≤ 100 nM		O=c1nc(OCc2ccc(Oc3ccc(Cl)c(C(F)(F)F)c3)c(F)c2)cc2n1CCCN2 [Example 97, 8-((4-(4-chloro-3-(trifluoromethyl)phenoxy)-3-fluorobenzyl)oxy)-3,4-dihydro-1H-pyrimido[1,6-a]pyrimidin-6(2H)-one]
≤ 10 nM	≤ 100 nM		O=c1nc(OCc2cc(F)c(F)c(F)c2)cc2n1CCCN2 [Example 113, 8-(3,4,5-trifluorobenzyloxy)-3,4-dihydro-1H-pyrimido[1,6-a]pyrimidin-6(2H)-one]
≤ 10 nM	≤ 100 nM		CN1CCCn2c1cc(OCc1ccc(F)c(F)c1)nc2=O [Example 10, 8-((3,4-difluorobenzyl)oxy)-1-methyl-3,4-dihydro-1H-pyrimido[1,6-a]pyrimidin-6(2H)-one, trifluoroacetic acid salt]
≤ 10 nM	≤ 100 nM	1.26 nM	CN1CCCn2c1cc(OCc1ccc(Oc3cccnc3)c(C#N)c1)nc2=O [Example 76, 5-(((1-methyl-6-oxo-2,3,4,6-tetrahydro-1H-pyrimido[1,6-a]pyrimidin-8-yl)oxy)methyl)-2-(pyridin-3-yloxy)benzonitrile]
≤ 10 nM	≤ 100 nM	2 nM	CN1CCCn2c1cc(OCc1cc(F)c(F)c(F)c1)nc2=O [Example 21, 1-methyl-8-((3,4,5-trifluorobenzyl)oxy)-3,4-dihydro-1H-pyrimido[1,6-a]pyrimidin-6(2H)-one]
≤ 10 nM	≤ 100 nM		N#Cc1ccc(Oc2ccc(COc3cc4n(c(=O)n3)CCCN4)cc2C#N)cc1Cl [Example 106, 2-chloro-4-(2-cyano-4-(((6-oxo-2,3,4,6-tetrahydro-1H-pyrimido[1,6-a]pyrimidin-8-yl)oxy)methyl)phenoxy)benzonitrile]
≤ 10 nM	≤ 1000 nM		CN1CCCn2c1cc(OCc1ccc(Oc3cccc(C(F)(F)F)c3)cc1)nc2=O [Example 77, 1-methyl-8-((4-(3-(trifluoromethyl)phenoxy)benzyl)oxy)-3,4-dihydro-1H-pyrimido[1,6-a]pyrimidin-6(2H)-one]
≤ 10 nM	≤ 100 nM	5.01 nM	CC(C)N1CCCn2c1cc(OCc1cc(F)c(F)c(F)c1)nc2=O [Example 42, isopropyl-8-((3,4,5-trifluorobenzyl)oxy)-3,4-dihydro-1H-pyrimido[1,6-a]pyrimidin-6(2H)-one]
≤ 10 nM	≤ 100 nM		CN1CCCn2c1cc(OCc1ccc(Oc3ccc(C(F)(F)F)cc3)c(C#N)c1)nc2=O [Example 29, 5-(((1-methyl-6-oxo-2,3,4,6-tetrahydro-1H-pyrimido[1,6-a]pyrimidin-8-yl)oxy)methyl)-2-(4-(trifluoromethyl)phenoxy)benzonitrile]
≤ 1 nM	≤ 1000 nM		CN1CCCn2c1cc(OCc1cc(F)c(Oc3cccc(Cl)c3)c(F)c1)nc2=O [Example 90, 8-((4-(3-chlorophenoxy)-3,5-difluorobenzyl)oxy)-1-methyl-3,4-dihydro-1H-pyrimido[1,6-a]pyrimidin-6(2H)-one]
≤ 10 nM	≤ 100 nM	2.51 nM	CN1CCCn2c1cc(OCc1ccc(Oc3cccc(C(F)(F)F)c3)c(F)c1)nc2=O [Example 28, 8-((3-fluoro-4-(3-(trifluoromethyl)phenoxy)benzyl)oxy)-1-methyl-3,4-dihydro-1H-pyrimido[1,6-a]pyrimidin-6(2H)-one]
≤ 10 nM	≤ 100 nM		CN1CCCn2c1cc(OCc1ccc(Oc3ccc(C(F)(F)F)nc3)c(F)c1)nc2=O [Example 4, 8-((3-fluoro-4-((6-(trifluoromethyl)pyridin-3-yl)oxy)benzyl)oxy)-1-methyl-3,4-dihydro-1H-pyrimido[1,6-a]pyrimidin-6(2H)-one]
